In PubChem BioAssay (NCI) one finds TGI and GI50 data, which are given here for 14 compounds.

For orientation: TGI means the concentration giving total growth inhibition. Low readings indicate greater sensitivity of the cells, high ones lower sensitivity of the cells. What is called GI50 is the concentration giving 50% growth inhibition.

SMILES strings stand for the structures.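 96-well plates; 48 h exposure; 5 concentrations. Endpoints by linear interpolation between flanking doses. Not reached: highest tested concentration assigned. At the GI50, growth is halved. TGI: total growth inhibition.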

Some test systems named below: SNB-19 CNS; UO-31 renal; PC-3 prostate; OVCAR-3 ovarian; HCT-15 colon; MDA-MB-435; NCI-H460 lung; NCI-H23 lung; HL-60(TB) leukemia; TK-10 renal.
What all share (experiment): DTP human tumour cell line panel, 48 h

For the compound `CC1=CCC[C@H]2[C@](C)(CC3=CC(=O)C(Sc4ccccc4)=CC3=O)[C@@H](C)CC[C@]12C`, the TGI amounted to 38.8 µM with SNB-19 CNS; 29.1 µM in the test on UO-31 renal; 82 µM in the test on PC-3 prostate; 31.4 µM with OVCAR-3 ovarian; 35.7 µM with HCT-15 colon; 43.5 µM with MDA-MB-435. Also, the TGI in the test on NCI-H460 lung is 42.9 µM; in the test with NCI-H23 lung, 28.2 µM. Also, the GI50 was 17.1 µM in the test with MDA-MB-435 and 14.7 µM in the test with NCI-H23 lung.
Regarding `O=C(CSc1nnc(-c2ccc(N=Cc3ccc(Cl)cc3)cc2)o1)Nc1ccc([N+](=O)[O-])cc1`, the total growth inhibition concentration (TGI) in the test with SNB-19 CNS is 33.7 µM; in the test with UO-31 renal, 37.2 µM; in the test with HCT-15 colon it was 32.6 µM; with HL-60(TB) leukemia, 63.9 µM; in the test with NCI-H460 lung, over 100 µM; in the test with TK-10 renal, over 100 µM. The TGI in the test on NCI-H23 lung stood at 38.1 µM.
Consider `O=C1C2=C(SCCS2)C(=O)c2c(Sc3ccc(Cl)cc3)c(Sc3ccc(Cl)cc3)c(Sc3ccc(Cl)cc3)c(Sc3ccc(Cl)cc3)c21`, for which the TGI is 88.6 µM in the test with SNB-19 CNS; over 100 µM in the test with UO-31 renal; over 100 µM with PC-3 prostate; over 100 µM in the test on OVCAR-3 ovarian; over 100 µM with HCT-15 colon; over 100 µM with MDA-MB-435. The TGI in the test with NCI-H460 lung and with NCI-H23 lung was over 100 µM each time.
On to `COc1cccc(-c2nccc3c(OCc4ccccc4)c(OC)c(OC)cc23)c1`, for which the TGI in the test with SNB-19 CNS, in the test with UO-31 renal, with OVCAR-3 ovarian, with HCT-15 colon, in the test with HL-60(TB) leukemia and in the test with TK-10 renal was over 100 µM each time. The compound also returned a TGI in the test with NCI-H23 lung of over 100 µM.
`O=C1/C(=C/c2ccccc2)NC(=S)N1CN1CCCCC1`: the concentration for total growth inhibition (TGI) with SNB-19 CNS, in the test on UO-31 renal, in the test on PC-3 prostate, in the test on OVCAR-3 ovarian, in the test on HCT-15 colon and with MDA-MB-435 was over 100 µM throughout. In the test with NCI-H23 lung, this compound yielded a TGI of over 100 µM.
Regarding `O=C(c1ccc(O)c([N+](=O)[O-])c1)c1ccc(O)c([N+](=O)[O-])c1`, the TGI is over 100 µM with SNB-19 CNS; over 100 µM with UO-31 renal; over 100 µM in the test with PC-3 prostate; over 100 µM in the test with OVCAR-3 ovarian; over 100 µM with HCT-15 colon; 70.1 µM with MDA-MB-435. Moreover, the total growth inhibition concentration (TGI) in the test with NCI-H460 lung, in the test with TK-10 renal and in the test on NCI-H23 lung was over 100 µM in each case.
As for `Cn1ccnc1CCc1ccc(Cl)c(Cl)c1`, the TGI in the test with UO-31 renal, in the test on OVCAR-3 ovarian, in the test on HCT-15 colon, in the test on HL-60(TB) leukemia, with NCI-H460 lung and with TK-10 renal was over 100 µM throughout. The same compound yielded a total growth inhibition concentration (TGI) in the test with NCI-H23 lung of over 100 µM.
Regarding `CCCc1nnc2sc(COc3cc(Cl)c(OCc4nn5c(CCC)nnc5s4)cc3Cl)nn12`, the total growth inhibition concentration (TGI) in the test on SNB-19 CNS was over 100 µM; with PC-3 prostate it was over 100 µM; with OVCAR-3 ovarian, 78.5 µM; with HCT-15 colon, over 100 µM; in the test with MDA-MB-435, over 100 µM; in the test on HL-60(TB) leukemia, 80.5 µM. The TGI with NCI-H460 lung, in the test on TK-10 renal and in the test with NCI-H23 lung was over 100 µM throughout.
As to `COc1cccc(C2SC(C)C(=O)N2CCc2cccs2)c1` (stereo not given), the GI50 in the test on SNB-19 CNS was 2.96 µM; with PC-3 prostate, 2.05 µM; in the test with OVCAR-3 ovarian, 2.04 µM; with HCT-15 colon, 2.75 µM; in the test on MDA-MB-435, 2.16 µM; in the test with HL-60(TB) leukemia, 2.59 µM. The GI50 in the test on NCI-H460 lung is 2.83 µM; in the test on TK-10 renal, 2.79 µM; with NCI-H23 lung, 2.62 µM. The TGI in the test on SNB-19 CNS worked out at 13.7 µM; in the test on PC-3 prostate it was 8.65 µM; in the test with OVCAR-3 ovarian it was 7.6 µM; with HCT-15 colon, 12.5 µM; with MDA-MB-435, 7.28 µM; with HL-60(TB) leukemia, 7.49 µM. Further, the TGI in the test with NCI-H460 lung worked out at 11 µM; with TK-10 renal, 11.7 µM; in the test with NCI-H23 lung, 12.1 µM.
For the compound `COC1=C2C=[N+](C)C3C(=C2C=CC1OC)Cc1cc2c(cc13)OCO2` (stereo not given), the TGI in the test with SNB-19 CNS was found to be 17.2 µM; in the test on UO-31 renal it was 26.6 µM; in the test on PC-3 prostate, 39.3 µM; with OVCAR-3 ovarian it was 13.7 µM; in the test on HCT-15 colon, 35.3 µM; in the test with MDA-MB-435, 33.3 µM. Moreover, the figures for the TGI in the test with HL-60(TB) leukemia, in the test on TK-10 renal and with NCI-H23 lung were 15.7 µM, 32.4 µM and 30.6 µM, respectively.
`O=C(O)CCc1ccc2c(c1)CC1(Cc3ccccc3C1)C2`: the TGI in the test with UO-31 renal, with PC-3 prostate, in the test on OVCAR-3 ovarian, in the test with HCT-15 colon, in the test with MDA-MB-435 and in the test on TK-10 renal was over 100 µM each time. This compound also registered a total growth inhibition concentration (TGI) with NCI-H23 lung of over 100 µM.
Turning to `O=C(N/N=C(/COc1ccccc1Cl)N=Cc1ccncc1)c1ccncc1`, the TGI with SNB-19 CNS, in the test on PC-3 prostate, in the test with OVCAR-3 ovarian, in the test with HCT-15 colon, in the test with MDA-MB-435 and with HL-60(TB) leukemia was over 100 µM each time. Further, the total growth inhibition concentration (TGI) in the test on NCI-H460 lung, with TK-10 renal and in the test on NCI-H23 lung was over 100 µM in each case.
Consider `CC(=O)OC(C)(C)CCC(=O)[C@](C)(O)[C@H]1[C@H](O)C[C@@]2(C)[C@@H]3CC=C4C(C)=C(OC5OC(CO)C(O)C(O)C5O)C(=O)C[C@@H]4[C@]3(C)C(=O)C[C@]12C` (stereo not given in full), for which the TGI in the test with SNB-19 CNS, with UO-31 renal, in the test on PC-3 prostate, with OVCAR-3 ovarian, in the test with HCT-15 colon and in the test with MDA-MB-435 was over 100 µM each time. In addition, the TGI in the test with NCI-H460 lung, in the test with TK-10 renal and in the test on NCI-H23 lung was over 100 µM each time.
With `COc1cc2c(cc1OC)[C@@](C)(C(O)C(O)C(C)(C)O)NCC2` (stereo not given in full), the concentration for total growth inhibition (TGI) with SNB-19 CNS, in the test with UO-31 renal, in the test with PC-3 prostate, in the test with OVCAR-3 ovarian, with HCT-15 colon and in the test on MDA-MB-435 was over 100 µM in each case. Moreover, the TGI in the test with HL-60(TB) leukemia, with TK-10 renal and in the test with NCI-H23 lung was over 100 µM in each case.
